Here are results for two molecules from US9629872B2, “Sodium thiosulphate for the treatment of ectopic calcifications” (Institut National de la Sante et de la Recherche Medicale …, priority 2012, dated 2017).

Data set [1] has as its system ossifications (ankle region and popliteal fossa area). In words: Topical treatment of a child with progressive osseous heteroplasia (Example 3). The class given is in vivo, human. The following applies: before the topical treatment; given with non steroidal anti-inflammatory medications. How it is done:
A child, weighing 27 kg, suffering from progressive osseous heteroplasia presented with significant ossifications that were responsible for a limitation of function in the right foot: in the ankle region, with an estimated surface area of 10 cm×5 cm, and in the popliteal fossa area with 2 patches, having an estimated surface area of 6 cm×4 cm each.
These exploratory tests were carried out in addition to the usual checkup including the exploration of renal function and liver function, as well as calcium and phosphate checkup.

The subject of a further data set is dystrophic calcification. The note with it: cited from earlier work.
The conditions of data set [2]: injectable solution of 0.15 g/mL with sodium phosphate dodecahydrate 1.21%, packaged in an ampoule; cited from earlier work.

In the case of `CC(O)(P(=O)(O)O)P(=O)(O)O` [disodium etidronate], the “improvement under earlier treatment” value in data set [1] is given as “No improvement”.
For `O=S([O-])([O-])=S.[Na+].[Na+]` [sodium thiosulfate], in the data set on dystrophic calcification (after six months, 10% compresses twice a week, with topical corticosteroid, acetic acid compresses and oral antibiotics), the superficial calcifications entry is “dissolved”. In the data set on dystrophic calcification (after six months, 10% compresses, combined treatment), the pains result is “progressively abated”. Besides, in the data set on dystrophic calcification (three months later (after the first six months)), the “re-epithelialisation over the wound regions” value is given as “almost complete re-epithelialisation”. The stability in data set [2] is recorded as 3 years.
